In patent US20210009542A1 (Calico Life Sciences LLC, priority 2018, published 2021):

Experiments:
[1] = system: Granzyme B+ cells within CD8+ T cells; test: Granzyme B staining of CD8 T cells flow cytometry assay in mouse spleen; assay type: in vivo; conditions: 300 mg/kg/dose oral BID; day 8 of dosing, 2 hours post 16th dose
Experimental: Mice were sacrificed on day 8 of dosing with indicated PTPN2/1B inhibitor (2 hours after the 16th dose) and spleens were excised. Spleens were dissociated with a gentleMACS dissociator (Miltenyi Biotec, Bergisch Gladbach, Germany), red blood cells lysed, and single cell suspensions were prepared. Splenocytes were stained with Zombie UV™ Fixable Viability kit (Biolegend, San Diego, Calif.) diluted in Dulbecco's PBS for 10 minutes at room temperature to exclude dead cells followed by staining for surface markers for 45 minutes on ice using the following flow cytometry antibodies diluted in autoMACS Running Buffer (Miltenyi Biotec, Bergisch Gladbach, Germany): Brilliant Violet 510-labeled anti-CD45, Brilliant Ultraviolet 395-labeled anti-CD3, Brilliant Violet 786-labeled anti-CD4, APC/Cy7-labeled anti-CD8. […] After staining, cells were washed twice with autoMACS Running Buffer, and the samples were acquired on a BD LSRFortessa™ X20 flow cytometers (BD Biosciences, San Jose, Calif.) and analyzed with FLowJo V10 software (FlowJo, Ashland, Oreg.). […]

IP10 = test: Cytokine measurement in mouse plasma (IP10); assay type: in vivo; conditions: 300 mg/kg/dose oral BID; day 8 of dosing, 2 hours post 16th dose
Experimental: Whole blood was drawn into sodium heparin by cardiac puncture from mice on day 8 of dosing with indicated PTPN2/1B inhibitor (2 hours after the 16th dose) and plasma was prepared by centrifugation. Cytokines in plasma were measured using the Th1/Th2 Cytokine & Chemokine 20-Plex Mouse ProcartaPlex™ Panel 1 (Invitrogen, Carlsbad, Calif.). IP10 levels were expressed as fold-changes over the vehicle control animal group.

COc1ccc2cc(O)c(N3CC(=O)NS3(=O)=O)c(F)c2c1 [Compound 124, 5-(1-fluoro-3-hydroxy-7-methoxynaphthalen-2-yl)-1λ^6,2,5-thiadiazolidine-1,1,3-trione]
% GzB+ cells within splenic CD8+ T cells [fold change over vehicle] [1]: 2.9 fold
IP10 in plasma [fold increase over vehicle] (IP10): 2.5 fold
